In US20240115654A1, “INTRAVENOUS ADMINISTRATION OF ENGINEERED ANTIMICROBIAL AMPHIPHILIC PEPTIDES” (priority 2021, published 2024):
Like-named read-outs stand apart in the source and are kept apart here. Peptide text beside a SMILES is read from it.

Source text: All subjects who met eligibility criteria were confined to the clinical research unit from […] through Day 3. At admission, physical examination, vital signs, 12 lead ECG and weight were obtained, medical and medication history were updated if necessary, safety blood tests (hematology and chemistry), urinalysis, urine drug screen and an alcohol breath test were repeated and a urine pregnancy test was done for women of childbearing potential.
At each dose level, there were 2 sentinel subjects, (1 active, 1 placebo), who were dosed at least 48 hours in advance of the other subjects in their respective group. Following review of safety data, including physical examination, vital signs, and review of adverse events from the first 2 subjects, enrolment in the cohort continued.
A 12-lead ECG was performed on Day 1, within 60 minutes of infusion start (in triplicate), mid-way through the infusion, at the completion of the infusion, 30 minutes after completion of the infusion and at various timepoints following the end of the infusion.
Vital signs were recorded within 60 minutes pre-dose, at the mid-point of the infusion and post dose vitals were assessed at completion of the infusion, 0.5, 1, 2, 3, 4, 6, 9, 12, 24 and 48 hours post dose, after at least 3 minutes of rest in supine position.
Subjects returned to the study center 7 days after dosing, for the termination visit. A full physical examination, vital signs and weight were obtained, concomitant medications were updated if necessary, safety blood specimens (haematology and chemistry, PT and aPTT) and urine were collected for urinalysis and urine drug screening. A serum pregnancy test was done for women of childbearing potential and a 12-lead ECG was performed.
In this study dose limiting toxicity (DLT) was defined as any drug related ≥Grade 3 AEs occurring despite optimal therapeutic interventions (which included but were not limited to allergic/hypersensitivity reactions, dermatological reactions/infusion site reactions, haematological toxicities such as neutropenia, thrombocytopenia and anaemia and clinical chemistry abnormalities) experienced up to Day 7 (Termination Visit).
(§1) All subjects who received any amount of study drug were included in the safety analysis (Safety population).
The study was a double blinded, randomized, placebo-controlled study. The placebo administered was 0.9% sodium chloride.
On Day 1 (day of dosing), subjects were randomly assigned either peptide IV or Placebo IV. At each dose level, there were 2 sentinel subjects, (1 active, 1 placebo), who were dosed at least 48 hours in advance of the other subjects in their respective group. Following review of safety data, including physical examination, vital signs, and review of adverse events from the first 2 subjects, enrolment in the cohort continued. All subjects who met eligibility criteria were confined to the clinical research unit from Day −2 through Day 3. At admission, physical examination, vital signs, 12 lead ECG and weight were obtained, medical and medication history were updated if necessary, safety blood tests (hematology and chemistry), urinalysis, urine drug screen and an alcohol breath test were repeated and a urine pregnancy test was done for women of childbearing potential.
as §1

[1] = Cohort 1: 0.05 mg/kg IV 1-hr infusion (N = 6)
[2] = Cohort 1: 0.05 mg/kg IV 1 hour infusion, subject 001-S008
[3] = Cohort 4 0.05 mg/kg IV 2-hr infusion, participant 001-S086
[4] = Cohort 4: 0.5 mg/kg IV 2-hr infusion (N = 6)

## CC(C)[C@H](NC(=O)[C@H](Cc1c[nH]c2ccccc12)NC(=O)[C@H](CCCNC(=N)N)NC(=O)[C@H](CCCNC(=N)N)NC(=O)[C@@H](NC(=O)[C@@H](NC(=O)[C@H](CCCNC(=N)N)NC(=O)[C@@H](NC(=O)[C@@H](NC(=O)[C@H](CCCNC(=N)N)NC(=O)[C@H](CCCNC(=N)N)NC(=O)[C@H](Cc1c[nH]c2ccccc12)NC(=O)[C@@H](NC(=O)[C@H](CCCNC(=N)N)NC(=O)[C@H](CCCNC(=N)N)NC(=O)[C@@H](NC(=O)[C@H](CCCNC(=N)N)NC(=O)[C@H](CCCNC(=N)N)NC(=O)[C@@H](NC(=O)[C@H](Cc1c[nH]c2ccccc12)NC(=O)[C@H](CCCNC(=N)N)NC(=O)[C@@H](N)CCCNC(=N)N)C(C)C)C(C)C)C(C)C)C(C)C)C(C)C)C(C)C)C(C)C)C(=O)N[C@@H](CCCNC(=N)N)C(=O)N[C@@H](CCCNC(=N)N)C(N)=O [SEQ ID NO: 1] (H-RRWVRRVRRVWRRVVRVVRRWVRR-NH2)
[1]
  Participants With At Least 1 TEAE, occurrences m: 7
  Participants With At Least 1 Treatment-Related TEAE, n (%): 1 (16.7%)
  Participants With At Least 1 Treatment-Related TEAE, occurrences m: 1
  TEAE Severity Grade 1, m: 7
  TEAE Severity Grade 1, n (%): 5 (83.3%)
  TEAE Severity Grade 2, n (%): 0
  TEAE by system organ class: Blood and Lymphatic System Disorders, participants n (%): 0
  TEAE by system organ class: Gastrointestinal Disorders, occurrences m: 1
  TEAE by system organ class: Gastrointestinal Disorders, participants n (%): 1 (16.7%)
  TEAE by system organ class: General Disorders and Administration Site Conditions, occurrences m: 1
  TEAE by system organ class: General Disorders and Administration Site Conditions, participants n (%): 1 (16.7%)
  TEAE by system organ class: Infections and Infestations, participants n (%): 0
  TEAE by system organ class: Injury, Poisoning, and Procedural Complications, occurrences m: 3
  TEAE by system organ class: Injury, Poisoning, and Procedural Complications, participants n (%): 3 (30.0%)
  TEAE by system organ class: Musculoskeletal and Connective Tissue Disorders, participants n (%): 0
  TEAE by system organ class: Nervous System Disorders, occurrences m: 2
  TEAE by system organ class: Nervous System Disorders, participants n (%): 2 (33.3%)
  TEAE by system organ class: Respiratory, Thoracic, and Mediastinal disorders, participants n (%): 0
  TEAE by system organ class: Skin and Subcutaneous Tissue Disorders, participants n (%): 0
  TEAE by system organ class: Vascular Disorders, participants n (%): 0
  TEAE severity Grade 1, occurrences m: 7
  TEAE severity Grade 1, participants n (%): 5 (83.3%)
  TEAE severity Grade 2, participants n (%): 0
  TEAE severity Grade 3, participants n (%): 0
  TEAE severity Grade 4, participants n (%): 0
  TEAE severity Grade 5, participants n (%): 0
  Treatment-related TEAE: Abdominal distension, participants n (%): 0
  Treatment-related TEAE: Blood and Lymphatic System Disorders, participants n (%): 0
  Treatment-related TEAE: Constipation, participants n (%): 0
  Treatment-related TEAE: Diarrhea, participants n (%): 0
  Treatment-related TEAE: Dizziness, participants n (%): 0
  Treatment-related TEAE: Feeling hot, participants n (%): 0
  Treatment-related TEAE: Gastrointestinal Disorders, participants n (%): 0
  Treatment-related TEAE: General Disorders and Administration Site Conditions, occurrences m: 1
  Treatment-related TEAE: General Disorders and Administration Site Conditions, participants n (%): 1 (16.7%)
  Treatment-related TEAE: Headache, participants n (%): 0
  Treatment-related TEAE: Infusion related reaction, participants n (%): 0
  Treatment-related TEAE: Infusion site discomfort, participants n (%): 0
  Treatment-related TEAE: Infusion site pain, participants n (%): 0
  Treatment-related TEAE: Infusion site reaction, participants n (%): 0
  Treatment-related TEAE: Infusion site swelling, participants n (%): 0
  Treatment-related TEAE: Injury, Poisoning, and Procedural Complications, participants n (%): 0
  Treatment-related TEAE: Macule, participants n (%): 0
  Treatment-related TEAE: Musculoskeletal and Connective Tissue Disorders, participants n (%): 0
  Treatment-related TEAE: Myalgia, participants n (%): 0
  Treatment-related TEAE: Nervous system disorders, participants n (%): 0
  Treatment-related TEAE: Oropharyngeal pain, participants n (%): 0
  Treatment-related TEAE: Orthostatic hypotension, participants n (%): 0
  Treatment-related TEAE: Phlebitis, participants n (%): 0
  Treatment-related TEAE: Respiratory, Thoracic, and Mediastinal disorders, participants n (%): 0
  Treatment-related TEAE: Skin and Subcutaneous Tissue Disorders, participants n (%): 0
  Treatment-related TEAE: Thrombocytopenia, participants n (%): 0
  Treatment-related TEAE: Vascular Disorders, participants n (%): 0
  Treatment-related TEAE: Vessel puncture site erythema, occurrences m: 1
  Treatment-related TEAE: Vessel puncture site erythema, participants n (%): 1 (16.7%)
  Treatment-related TEAE: Vessel puncture site pain, participants n (%): 0
  Treatment-related TEAE: Vomiting, participants n (%): 0
[2]
  Infusion related reaction: End Date/Time: Day 1/6 hours
  Infusion related reaction: Severity Grade: Grade 1
Cohort 2: […] IV 1-hr infusion (N = 6)
  Number of Participants Reporting at least: One Dose-Limiting Toxicity, n (%): 0
Cohort 3: […] IV 1-hr infusion (N = 5)
  Number of Participants Reporting at least: One Dose-Limiting Toxicity, n (%): 0
Cohort 3b: […] IV 2-hr infusion (N = 6)
  Number of Participants Reporting at least: One Dose-Limiting Toxicity, n (%): 0
[3]
  Severity of event: Localized IRR at right arm and shoulder ache: Grade 1
  Severity of event: Myalgia: Grade 1
Cohort 4, 0.5 mg/kg over 2 hours in 250 mL
  participants with IRRs: 3
Cohort 4, 0.5 mg/kg over 2 hours in 250 mL, all Grade 1, no study drug interruption
  IRRs, events: 4
[4]
  Number of Participants Reporting at least: Onc TEAE Leading to Study Withdrawal, n (%): 0
  Number of Participants Reporting at least: One Dose-Limiting Toxicity, n (%): 0
  Number of Participants Reporting at least: One Related TEAE, n (%): 3 (50.0%)
  Number of Participants Reporting at least: One Serious TEAE, n (%): 0
  Number of Participants Reporting at least: One TEAE Leading to Study Drug Discontinuation, n (%): 0
  Number of Participants Reporting at least: One TEAE with Common Terminology Criteria for Adverse Events (CTCAE) Toxicity ≥ Grade 3, n (%): 0
  Number of Participants Reporting at least: One TEAE, n (%): 6 (100%)
  One Related TEAE, m: 4
  One TEAE, m: 15
  Participants With At Least 1 TEAE, n (%): 6 (100%)
  Participants With At Least 1 TEAE, occurrences m: 15
  Participants With At Least 1 Treatment-Related TEAE, n (%): 3 (50.0%)
  Participants With At Least 1 Treatment-Related TEAE, occurrences m: 4
  TEAE Severity Grade 1, m: 12
  TEAE Severity Grade 1, n (%): 6 (100%)
  TEAE Severity Grade 2, m: 3
  TEAE Severity Grade 2, n (%): 2 (33.3%)
  TEAE by system organ class: Blood and Lymphatic System Disorders, participants n (%): 0
  TEAE by system organ class: Gastrointestinal Disorders, occurrences m: 2
  TEAE by system organ class: Gastrointestinal Disorders, participants n (%): 1 (16.7%)
  TEAE by system organ class: General Disorders and Administration Site Conditions, occurrences m: 2
  TEAE by system organ class: General Disorders and Administration Site Conditions, participants n (%): 2 (33.3%)
  TEAE by system organ class: Infections and Infestations, occurrences m: 1
  TEAE by system organ class: Infections and Infestations, participants n (%): 1 (16.7%)
  TEAE by system organ class: Injury, Poisoning, and Procedural Complications, occurrences m: 4
  TEAE by system organ class: Injury, Poisoning, and Procedural Complications, participants n (%): 3 (50.0%)
  TEAE by system organ class: Musculoskeletal and Connective Tissue Disorders, occurrences m: 2
  TEAE by system organ class: Musculoskeletal and Connective Tissue Disorders, participants n (%): 2 (33.3%)
  TEAE by system organ class: Nervous System Disorders, occurrences m: 1
  TEAE by system organ class: Nervous System Disorders, participants n (%): 1 (16.7%)
  TEAE by system organ class: Respiratory, Thoracic, and Mediastinal disorders, participants n (%): 0
  TEAE by system organ class: Skin and Subcutaneous Tissue Disorders, occurrences m: 3
  TEAE by system organ class: Skin and Subcutaneous Tissue Disorders, participants n (%): 2 (33.3%)
  TEAE by system organ class: Vascular Disorders, participants n (%): 0
  TEAE severity Grade 1, occurrences m: 12
  TEAE severity Grade 1, participants n (%): 6 (100%)
  TEAE severity Grade 2, occurrences m: 3
  TEAE severity Grade 2, participants n (%): 2 (33.3%)
  TEAE severity Grade 3, participants n (%): 0
  TEAE severity Grade 4, participants n (%): 0
  TEAE severity Grade 5, participants n (%): 0
  Treatment-related TEAE: Abdominal distension, occurrences m: 1
  Treatment-related TEAE: Abdominal distension, participants n (%): 1 (16.7%)
  Treatment-related TEAE: Blood and Lymphatic System Disorders, participants n (%): 0
  Treatment-related TEAE: Constipation, participants n (%): 0
  Treatment-related TEAE: Diarrhea, occurrences m: 1
  Treatment-related TEAE: Diarrhea, participants n (%): 1 (16.7%)
  Treatment-related TEAE: Dizziness, participants n (%): 0
  Treatment-related TEAE: Feeling hot, participants n (%): 0
  Treatment-related TEAE: Gastrointestinal Disorders, occurrences m: 2
  Treatment-related TEAE: Gastrointestinal Disorders, participants n (%): 1 (16.7%)
  Treatment-related TEAE: General Disorders and Administration Site Conditions, occurrences m: 2
  Treatment-related TEAE: General Disorders and Administration Site Conditions, participants n (%): 2 (33.3%)
  Treatment-related TEAE: Headache, participants n (%): 0
  Treatment-related TEAE: Infusion related reaction, participants n (%): 0
  Treatment-related TEAE: Infusion site discomfort, participants n (%): 0
  Treatment-related TEAE: Infusion site pain, participants n (%): 0
  Treatment-related TEAE: Infusion site reaction, occurrences m: 1
  Treatment-related TEAE: Infusion site reaction, participants n (%): 1 (16.7%)
  Treatment-related TEAE: Infusion site swelling, participants n (%): 0
  Treatment-related TEAE: Injury, Poisoning, and Procedural Complications, participants n (%): 0
  Treatment-related TEAE: Macule, participants n (%): 0
  Treatment-related TEAE: Musculoskeletal and Connective Tissue Disorders, participants n (%): 0
  Treatment-related TEAE: Myalgia, participants n (%): 0
  Treatment-related TEAE: Nervous system disorders, participants n (%): 0
  Treatment-related TEAE: Oropharyngeal pain, participants n (%): 0
  Treatment-related TEAE: Orthostatic hypotension, participants n (%): 0
  Treatment-related TEAE: Phlebitis, participants n (%): 0
  Treatment-related TEAE: Respiratory, Thoracic, and Mediastinal disorders, participants n (%): 0
